According to patent US5462965A, “Use of heterocyclic amino-alcohol compounds for treatment of CNS diseases” (GD Searle & Co., priority 1992, dated 1995):
Where two headings read alike, the source gives them in different places.

Columns and labels:
NMDA receptor = settings: C. Carter et al, 1988; cited from earlier work
[1] = biological target: NMDA receptor-ionophore complex (polyamine domain / NMDA ionophore); assay: Spermidine (polyamine)-stimulated [3H]TCP binding, functional model of coupling of the polyamine domain to the NMDA ionophore; settings: spermidine-stimulated [3H]TCP binding, rat cortex; for IC50: at least two independent experiments
Method: Polyamine-stimulated [^3 H]TCP: Crude synaptic ("buffy coat") membranes were prepared from freshly dissected cerebral cortices. Membrane preparations were extensively washed employing 3 freeze-thaw cycles. The final pellet was stored at -70° C. for 1-7 days prior to assay. On the day of assay, the membrane pellet was washed twice by resuspension and centrifugation (45,000 g, 10 min. ). […] Assays were terminated by rapid vacuum filtration through GF/B filter paper (pre-soaked in 0.5% aqueous polyethyleneimine) in a Brandel M-48R Cell Harvester and thorough washing with ice-cold 5 mM Tris HCl pH 7.7.

sigma site [2] = assay: Sigma site binding: inhibition of R(+)-[3H]3-PPP binding; parameters: species or system rat; settings: for affinity for the high affinity sigma site / inhibition of binding of R(+)-[3H]3-PPP / model describing the interaction with the site labelled by R(+)-[3H]3-PPP: in words; for affinity for the high affinity sigma site: computer-assisted analyses
Method: (§1) Membranes were prepared from freshly dissected brains of adult male Sprague-Dawley rats (175-250 g).
R(+-^3 H]3-PPP: Crude membranes were prepared from whole brain (minus cerebellum) as described previously [P. M. Beart et al, J. Neurochem., 53, 779-788 (1989)]. A filtration binding assay was employed under similar conditions to those of Largent et al (1986) with 3 nM R (+)-[^3 H]-3-PPP and a 90 min. incubation at 25° C. (Beart et al, 1989). Non-specific binding was defined with 10 μ1,3-di(2-tolyl)guanidine (DTG).
Binding data were analyzed by the iterative curve fitting programs EBDA and LIGAND as fully described elsewhere [Beart et al, Id., (1989)]. Results obtained from experiments examining spermidine-stimulated binding of ^3 H]TCP were analyzed by the program FLEXIFIT [V. Guardabasso et al, FASEB J., 2, 209-215 (1988)] which iteratively fits data to a sigmoidal model providing estimates of IC50 and slope for the drug under study.

[3] = Arch. Int. Pharm., 1983; cited from earlier work
[4] = biological target: polyamine domain of the NMDA receptor-complex; assay: Binding of [125I]ifenprodil to rat cortical membranes (polyamine domain interaction)
Method: The NMDA receptor-ionophore complex consists of a number of interacting domains, including one for polyamines where ifenprodil binds to exert its noncompetitive antagonism. Ifenprodil was iodinated with Na^125 I/chloramine-T, purified and its binding characterized.
as §1
^125 I]Ifenprodil: Crude membranes were prepared from freshly dissected cerebral cortices as described elsewhere [P. M. Beart et al, Neurosci. Lett., 124, 187-189 (1991)]. Briefly, assays were performed in 5 mM Tris HCl pH 7.7 containing [^125 I]ifenprodil (20,000 dpms, ~20 pM) and cortical membranes (0.5 mg wet wt.) in a final volume of 0 5 mL Incubations were for 30 min at 20° C., in triplicate, employing 12 concentrations of competing drugs. Non-specific binding was defined with 10 mM spermine. Assays were terminated by rapid filtration through GF/B filter paper and washing [Beart et al, Id., (1991)].
Binding data were analyzed by the iterative curve fitting programs EBDA and LIGAND as fully described elsewhere [Beart et al, Id., (1989)].

[5] = in certain cases and mostly high doses; cited from earlier work
sigma site [6] = settings: P. C. Contreras et al, 1990; cited from earlier work
sigma site [7] = settings: J. Benavides et al, 1990; cited from earlier work
NMDA receptor complex = settings: [3H]TCP and [3H]dizocilpine (MK-801); cited from earlier work
[8] = one site fit, pooled data, n = 2 independent experiments, read-out: KG = Dissociation constant for one site fit
[9] = two site fit, fitted better to 2 site model (P < 0.05)
[10] = two site fit, fitted better to 2 site model (P < 0.05), read-out: KH = Dissociation constant at high affinity site for two site fit
[11] = two site fit, fitted better to 2 site model (P < 0.05), read-out: KL = Dissociation constant at low affinity site for two site fit
[12] = rat cortical membranes, mean ± s.e.m., n = 3 or 4, read-out: [125I] IFENPRODIL Kd
[13] = two site fit, value in parentheses (exception to better 2 site fit)
[14] = two site fit, value in parentheses (exception to better 2 site fit), read-out: KH = Dissociation constant at high affinity site for two site fit
[15] = two site fit, value in parentheses (exception to better 2 site fit), read-out: KL = Dissociation constant at low affinity site for two site fit
[16] = one site fit, *one experiment, read-out: KG = Dissociation constant for one site fit
[17] = n=4 (spermine), n=3 (spermidine), read-out: dissociation constants for spermine and spermidine (inhibition of specific [125I]ifenprodil binding)

For “1-(4chlorophenyl)-2-[1-(4-fluorophenyl)piperidinyl]ethanol”, the NMDA receptor antagonism (NMDA receptor) is listed as “noncompetitive NMDA receptor antagonists”.

For `C[C@H](NCCCCc1ccccc1)[C@H](O)c1ccc2c(c1)CCS2` (relative stereo) [Compound 7], the IC50 [1] was 8200 nM, the “affinity for the high affinity sigma site” value (sigma site [2]) was “appreciable affinity” and the Kd (sigma site [2]; [8]) was 170 nM. The “% RH = Percent of high affinity binding sites for two site fit” value (“% RH = Percent” below) (sigma site [2]; [9]) was 66%, the Kd (sigma site [2]; [10]) was 44 nM and the Kd (sigma site [2]; [11]) was 11000 nM. The antihypertensive effect [3] was “antihypertensive effect”, the anxiolytic activity [3] was “anxiolytic activity” and the Kd [4, 12] was 3600 ± 300 nM.

In the case of `C[C@H](NCCCCc1ccccc1)[C@@H](O)c1ccc2c(c1)CCS2` (relative stereo) [Compound 183], the “SPERMIDINE [3H] TCP IC50 (class symbol: inhibitory at 50 μM)” value [1] is reported as “+”, the Kd (sigma site [2]; [8]) is reported as 450 nM and the “% RH = Percent” value (sigma site [2]; [13]) is reported as 84%. For the same compound, the Kd (sigma site [2]; [14]) was 300 nM, the Kd (sigma site [2]; [15]) was 130000 nM and the Kd [4, 12] was 9300 ± 5400 nM.

For `CC(NCCCCc1ccccc1)C(O)c1ccc2c(c1)CCS2` (single isomer, unassigned) [Compound 184], the “SPERMIDINE [3H] TCP IC50 (class symbol: inhibitory at 50 μM)” value [1] was “+”, the “affinity for the high affinity sigma site” value (sigma site [2]) was “appreciable affinity” and the Kd (sigma site [2]; [8]) was 230 nM. The “% RH = Percent” value (sigma site [2]; [9]) was 54% and the Kd [4, 12] was 6300 ± 1800 nM.

For `CC(NCCCCc1ccccc1)C(O)c1ccc2c(c1)CCS2` (single isomer, unassigned) [Compound 185], the IC50 [1] was 59000 nM, the “inhibition of binding of R(+)-[3H]3-PPP” value (sigma site [2]) was “very potent inhibitors” and the “affinity for the high affinity sigma site” value (sigma site [2]) was “appreciable affinity”. The Kd (sigma site [2]; [8]) was 32 nM, the “% RH = Percent” value (sigma site [2]; [13]) was 63% and the Kd (sigma site [2]; [14]) was 4.6 nM. For the same compound, the Kd (sigma site [2]; [15]) was 300 nM and the Kd [4, 12] was 3500 ± 1100 nM.

In the case of `C=CCN1CCC2(C)c3cc(O)ccc3CC1C2C` (single isomer, unassigned; (+)) [(+)SKF10.047, N-allylnormetazocine, reference compound], the Kd (sigma site [2]; [8]) is reported as 1500 nM, the “% RH = Percent” value (sigma site [2]; [9]) is reported as 60% and the Kd (sigma site [2]; [10]) is reported as 48 nM. For the same compound, the Kd (sigma site [2]; [11]) was 6300 nM.

For `CCCCN(C)CC(O)c1ccc2c(c1)CCC2` (centres unmarked) [1-(5-indanyl)-2-amino-N,N-n-butyl-methylethanol], the CNS-activity [5] is listed as “in certain cases and mostly high doses posess a CNS-activity”.

For `OC(CNC1CCCCCC1)c1ccc2c(c1)CCC2` (centres unmarked) [1-(5-indanyl)-2-amino-N-cycloheptyl-ethanol], the CNS-activity [5] is given as “in certain cases and mostly high doses posess a CNS-activity”.

For `OC(CN1CCN(Cc2ccccc2)CC1)c1ccc2c(c1)CCC2` (centres unmarked) [1-(5-indanyl)-2-amino-N-phenylmethylpiperazinoethanol], the CNS-activity [5] is given as “in certain cases and mostly high doses posess a CNS-activity”.

In the case of `CC(NCCCCc1ccccc1)C(O)c1ccc2c(c1)CCCS2` (centres unmarked) [Compound 2], the “SPERMIDINE [3H] TCP IC50 (class symbol: inhibitory at 50 μM)” value [1] is reported as “+”, the Kd (sigma site [2]; [16]) is reported as 400 nM and the “% RH = Percent” value (sigma site [2]; [13]) is reported as 72%. The Kd (sigma site [2]; [14]) was 150 nM, the Kd (sigma site [2]; [15]) was 4300 nM and the Kd [4, 12] was 9300 ± 5500 nM.

In the case of `CC(NCCCCOc1ccccc1)C(O)c1ccc2c(c1)CCCS2` (centres unmarked) [Compound 24], the “SPERMIDINE [3H] TCP IC50 (class symbol: inhibitory at 50 μM)” value [1] is reported as “+”, the Kd (sigma site [2]; [16]) is reported as 390 nM and the “% RH = Percent” value (sigma site [2]; [13]) is reported as 63%. The Kd (sigma site [2]; [14]) was 89 nM, the Kd (sigma site [2]; [15]) was 3000 nM and the Kd [4, 12] was 3700 ± 1100 nM.

With `CC(C(O)c1ccc2c(c1)CCCS2)N1CCC(Cc2ccccc2)CC1` (centres unmarked) [Compound 26] the Kd [4, 12] was 12000 nM.

In the case of `CC(CCCc1ccccc1)NC(C)C(O)c1ccc2c(c1)CCCS2` (centres unmarked) [Compound 42], the “SPERMIDINE [3H] TCP IC50 (class symbol: inhibitory at 50 μM)” value [1] is reported as “+” and the Kd [4, 12] is reported as 2700 ± 400 nM.

For `CC(NCCCc1ccccc1)C(O)c1ccc2c(c1)CCCS2` (centres unmarked) [Compound 75], the “SPERMIDINE [3H] TCP IC50 (class symbol: inhibitory at 50 μM)” value [1] was “+”, the Kd (sigma site [2]; [8]) was 340 nM and the “% RH = Percent” value (sigma site [2]; [9]) was 67%. It also gave a Kd (sigma site [2]; [10]) of 86 nM, a Kd (sigma site [2]; [11]) of 4300 nM and a Kd [4, 12] of 5000 ± 1400 nM.

For `CC(C(O)c1ccc2c(c1)CCS2)N1CCC(Cc2ccccc2)CC1` (centres unmarked) [Compound 186], the “SPERMIDINE [3H] TCP IC50 (class symbol: inhibitory at 50 μM)” value [1] was “+”, the “inhibition of binding of R(+)-[3H]3-PPP” value (sigma site [2]) was “very potent inhibitors” and the Kd (sigma site [2]; [8]) was 30 nM. For the same compound, the “% RH = Percent” value (sigma site [2]; [13]) was 72%, the Kd (sigma site [2]; [14]) was 2.9 nM and the Kd (sigma site [2]; [15]) was 600 nM. For the same compound, the Kd [4, 12] was 6700 ± 1100 nM.

For `CC(C(O)c1ccc(O)cc1)N1CCC(Cc2ccccc2)CC1` (centres unmarked) [Ifenprodil, reference compound], the “affinity for the sigma site in vitro” value (sigma site [6]) is given as “considerable affinity”, the IC50 [1] is given as 6800 nM and the NMDA receptor antagonism (NMDA receptor) is given as “noncompetitive NMDA receptor antagonists”. The “model describing the interaction with the site labelled by R(+)-[3H]3-PPP” value (sigma site [2]) was “better described by a two-site model”, the Kd (sigma site [2]; [8]) was 20 nM and the “% RH = Percent” value (sigma site [2]; [9]) was 82%. The Kd (sigma site [2]; [10]) was 11 nM, the Kd (sigma site [2]; [11]) was 19000 nM and the “sigma binding affinity in vivo” value (sigma site [7]) was “Sigma binding affinity has also been found in vivo”. For the same compound, the Kd [4, 12] was 150 ± 30 nM.

With `CC(CCc1ccccc1)NC(C)C(O)c1ccc(O)cc1` (centres unmarked) [Nylidrin, reference compound] the IC50 [1] was 73000 nM, the “model describing the interaction with the site labelled by R(+)-[3H]3-PPP” value (sigma site [2]) was “better described by a two-site model” and the Kd (sigma site [2]; [8]) was 38 nM. For the same compound, the “% RH = Percent” value (sigma site [2]; [9]) was 86%, the Kd (sigma site [2]; [10]) was 19 nM and the Kd (sigma site [2]; [11]) was 11000 nM. It also gave a Kd [4, 12] of 30000 ± 8500 nM.

With `OC(CN1CCC(Cc2ccc(F)cc2)CC1)c1ccc(Cl)cc1` (centres unmarked) [SL82.0715, reference compound] the “dissociability of [125I]ifenprodil specific binding” value ([4]; 16.7 μM SL 82.0715) was “poorly dissociable”, the Kd ([4]; n=3, read-out: dissociation constant of SL82.0715 ([125I]ifenprodil binding)) was 2300 ± 130 nM and the Kd [4, 12] was 2300 ± 100 nM.

In the case of `NCCCCNCCCN` [spermidine, reference compound], the “effect on binding of channel ligands” value (NMDA receptor complex) is given as “profoundly enhance the binding of channel ligands” and the Kd [4, 17] is given as 44000 nM.

For `NCCCNCCCCNCCCN` [spermine, reference compound], the “effect on binding of channel ligands” value (NMDA receptor complex) is given as “profoundly enhance the binding of channel ligands”, the “dissociability of [125I]ifenprodil specific binding” value ([4]; 1 mM spermine) is given as “dissociable” and the Kd [4, 17] is given as 24000 nM.
